Measured values taken from patent US20220211692A1, “Modulators of the Cystic Fibrosis Transmembrane Conductance Regulator Protein and Methods of Use” (AbbVie Global Enterprises Ltd., priority 2021, published 2022).
Like-named read-outs stand apart in the source and are kept apart here.

Columns and labels:
[1] = target: T1, F508del/F508del CFTR (Homo sapiens, UniProt P13569, DEL508-508); assay: Trans-Epithelial Current Clamp (TECC) assay using primary human bronchial epithelial cells; type: cell-based; details: for Emax (% Dual): maximum percent activity relative to positive control (co-corrector 0.15 μM + potentiator 0.45 μM = 100%); for EC50: primary hBE cells F508del/F508del, test corrector with co-corrector and potentiator, 18-24 hours, equivalent CFTR current
T1 construct: cells isolated from CF patients with the homozygous mutation; endogenous in cells; host or cells: primary human bronchial epithelial (hBE) cells from CF patients homozygous for F508del
T1 sequence (P13569 with tags, fused parts or gaps DEL508-508): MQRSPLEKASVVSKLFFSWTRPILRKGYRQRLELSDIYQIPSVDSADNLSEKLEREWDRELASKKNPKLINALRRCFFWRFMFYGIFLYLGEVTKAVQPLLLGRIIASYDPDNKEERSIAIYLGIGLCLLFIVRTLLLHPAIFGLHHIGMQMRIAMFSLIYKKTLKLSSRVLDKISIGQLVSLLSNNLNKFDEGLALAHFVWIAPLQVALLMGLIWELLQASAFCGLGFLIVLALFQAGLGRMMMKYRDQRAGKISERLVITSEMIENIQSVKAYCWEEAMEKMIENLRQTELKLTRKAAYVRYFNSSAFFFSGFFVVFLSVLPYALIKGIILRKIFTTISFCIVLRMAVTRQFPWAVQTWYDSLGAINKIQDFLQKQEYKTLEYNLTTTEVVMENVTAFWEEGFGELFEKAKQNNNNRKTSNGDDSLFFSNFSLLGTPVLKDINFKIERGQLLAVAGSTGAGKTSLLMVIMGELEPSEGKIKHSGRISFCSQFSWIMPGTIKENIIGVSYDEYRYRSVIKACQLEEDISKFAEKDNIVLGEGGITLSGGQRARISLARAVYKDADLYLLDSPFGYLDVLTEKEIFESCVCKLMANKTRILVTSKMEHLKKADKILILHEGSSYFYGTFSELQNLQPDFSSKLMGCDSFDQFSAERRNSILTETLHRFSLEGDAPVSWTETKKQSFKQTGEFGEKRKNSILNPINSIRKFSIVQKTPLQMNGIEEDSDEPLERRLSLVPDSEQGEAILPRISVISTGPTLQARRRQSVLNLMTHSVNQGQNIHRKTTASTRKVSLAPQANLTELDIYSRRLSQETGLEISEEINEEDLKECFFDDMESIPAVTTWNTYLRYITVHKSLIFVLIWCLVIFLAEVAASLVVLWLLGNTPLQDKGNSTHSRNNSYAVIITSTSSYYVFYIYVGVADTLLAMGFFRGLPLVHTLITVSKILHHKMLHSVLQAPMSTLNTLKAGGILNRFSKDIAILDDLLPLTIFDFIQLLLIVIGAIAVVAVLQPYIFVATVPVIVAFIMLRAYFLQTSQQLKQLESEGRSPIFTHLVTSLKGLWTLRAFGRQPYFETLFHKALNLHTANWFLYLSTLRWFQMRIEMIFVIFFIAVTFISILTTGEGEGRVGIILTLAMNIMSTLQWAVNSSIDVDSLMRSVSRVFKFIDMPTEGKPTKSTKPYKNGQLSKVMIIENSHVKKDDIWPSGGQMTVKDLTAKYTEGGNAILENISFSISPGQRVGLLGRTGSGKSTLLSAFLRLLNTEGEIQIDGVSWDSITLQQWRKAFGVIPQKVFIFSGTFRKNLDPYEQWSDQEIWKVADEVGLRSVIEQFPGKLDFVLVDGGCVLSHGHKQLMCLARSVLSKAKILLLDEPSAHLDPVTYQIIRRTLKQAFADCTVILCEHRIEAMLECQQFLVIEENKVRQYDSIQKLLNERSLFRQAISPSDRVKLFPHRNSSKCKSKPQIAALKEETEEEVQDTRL
Text: A cell-based assay was developed using the primary human bronchial epithelial cells (hBE cells) with F508del/F508del CFTR and other mutations.
Primary human bronchial epithelial (hBE) cells from CFTR patients with homozygous F508del/F508del mutation were expanded from 1×10^6 to 250×10^6 cells (Neuberger, T et al., 2011, Methods Mol Biol 741:39-54). For this purpose, cells isolated from CF patients with the homozygous mutation, procured from the CF center tissue procurement and cell culture core at the Marsico Lung Institute at UNC (Randell), the Cystic Fibrosis translational research center at McGill University (University), and Rosalind Franklin University Medical School (RFUMS) were seeded onto 24 well Corning (Cat #3378) filter plates that were coated with 3T3 conditioned media and grown at an air-liquid interface for 35 days using an Ultroser® G supplemented differentiation media. All the primary human bronchial epithelial cells were collected in accordance with institutional review board approval protocols. Apical surface mucus was removed 72 hours before the experiment by incubating the apical surface of the cells for 30 minutes with 3 mM dithiothreitol (DTT) prepared in Dulbecco's phosphate buffered saline (DPBS) with Ca^2+ and Mg^2+. This was followed with aspiration of the mucus from the apical surface along with DPBS. The apical surface was re-washed with phosphate buffered saline (PBS) incubated for 30 minutes followed with aspiration. These hBE cells were then incubated with the desired concentrations of the test C2 corrector compounds along with co-corrector, 4-[(2R,4R)-4-({[1-(2,2-difluoro-1,3-benzodioxol-5-yl)cyclopropyl]carbonyl}amino)-7-(difluoromethoxy)-3,4-dihydro-2H-chromen-2-yl]benzoic acid and potentiator, (5-{3-amino-5-[4-(trifluoromethoxy)benzene-1-sulfonyl]pyridin-2-yl}-1,3,4-oxadiazol-2-yl)methanol, for 18-24 hours at 37° C., 5% CO2. The desired concentrations of the correctors and potentiator compounds were prepared from the 10 mM stocks in differentiation media and were always applied on the basolateral side of the epithelial cells. We also used an assay format where a fixed concentration of potentiator was added chronically along with the corrector compounds. This chronic treatment with the potentiator helped eliminate any interaction that might happen with CFTR modulators (correctors and potentiators) and thereby determined the true efficacy of the modulator combinations reflective of clinical relevance.
The assay uses a Transepithelial Current Clamp (TECC) (Vu, C B et al., 2017; J Med Chem 60:458-473) instrument that can measure the functionality of the mutated channel by measuring the equivalent CFTR current (IEQ) generated by the polarized primary epithelial cells. We used a TECC-24 with a 24-channel electrode manifold allowing for the simultaneous measurement of the transepithelial voltage, VT, and transepithelial resistance, RT, under current clamp conditions, from 24 filters using a 24 well Costar filter plate. The design of the filters in the 24 well filter plates was exactly the same as the design of an individual Transwell filter used in the classical Ussing Chamber with a surface area of 0.33 cm^2. Each measured VT values were corrected for the electrode offset potential measured using buffer alone in a separate plate, and each measured RT values were then corrected for the combined solution series and empty filter resistances. The corrected VT and RT values were then used to calculate the equivalent current, IEQ using Ohm's law (IEQ=VT/RT). The area under the curve (AUC) for the time period between the forskolin peak IEQ response and at the time of bumetanide addition was also calculated using a one-third trapezoid method, in addition to calculating the IEQ. The assay was run in a 24-well format and all 24-wells were measured at the same time point giving a higher throughput for this assay. […]

[2] = target: T2, F508delCFTR (Homo sapiens, UniProt P13569, DEL508-508); assay: Cell Surface Expression-Horse Radish Peroxidase (CSE-HRP) assay in CFBE41o-F508delCFTR-HRP cells; type: cell-based; details: for EC50: CFBE41o-F508delCFTR-HRP cells, 18-24 hours at 33° C.; for Maximum % activity (with co-corrector) / Emax: normalized to on-plate positive control; for Emax: read-out: Maximum % activity (without co-corrector)
T2 construct: expressed in transfected cells; host or cells: CFBE41o- human lung derived epithelial cell line, doxycycline-induced expression
T2 sequence (P13569 with tags, fused parts or gaps DEL508-508): as above
Procedure: A cellular assay for measuring the F508delCFTR cell surface expression after correction with test compounds either without or with a co-corrector (2 μM of 3-[(2R,4R)-4-({[1-(2,2-difluoro-1,3-benzodioxol-5-yl)cyclopropyl]carbonyl}amino)-7-methoxy-3,4-dihydro-2H-chromen-2-yl]benzoic acid), was developed in human lung derived epithelial cell line (CFBE41o-) (Veit G et al, (2012) Mol Biol Cell. 23(21): 4188-4202). The development was achieved by expressing the F508delCFTR mutation along with a horseradish peroxidase (HRP) in the fourth exofacial loop, and then measuring the HRP activity using luminescence readout from these cells, CFBE41o-F508delCFTR-HIRP, that were incubated overnight with the test corrector compounds, either without or with the co-corrector. For this primary assay, the CFBE41o-F508delCFTR-HRP cells were plated in 384-well plates (Greiner Bio-one; Cat 781080) at 4,000 cells/well along with 0.5 μg/mL doxycycline to induce the F508delCFTR-HRP expression and further incubated at 37° C., […] for 68-72 hours. The test compounds were then added either without or with a co-corrector at the required concentrations and further incubated for 18-24 hours at 33° C. The highest concentration tested was 20 μM or 30 μM (GI-1 to GIII-36) with an 8-point concentration response curve using a 3-fold dilution in both the test compound without or with the co-corrector. Three replicate plates were run to determine one EC50. All plates contained negative controls (dimethyl sulfoxide, DMSO) and positive control (2 μM or 3 μM (GI-1 to GIII-36) of 3-[(2R,4R)-4-({[1-(2,2-difluoro-1,3-benzodioxol-5-yl)cyclopropyl]carbonyl}amino)-7-methoxy-3,4-dihydro-2H-chromen-2-yl]benzoic acid) as well as on-plate concentration response of the positive control. Post incubation, the plates were washed 5× times with Dulbecco's phosphate buffered saline (DPBS), followed by the addition of the HRP substrate, luminol (50 μL), and measuring the HRP activity using luminescence readout on EnVision® Multilabel Plate Reader (Perkin Elmer; product number 2104-0010). The raw counts from the experiment were analyzed using Accelrys® Assay Explorer v3.3.
Z′ greater than 0.5 was used as passing quality control criteria for the plates. The Z′ is defined as:
1−[3*SDPositive Control+3*SDNegative Control/Absolute(MeanPositive Control−MeanNegative Control)]
The % activity measured at each of the 8 test concentrations of the test compound added either without or with a co-corrector (2 μM or 3 μM (GI-1 to GIII-36) of 3-[(2R,4R)-4-({[1-(2,2-difluoro-1,3-benzodioxol-5-yl)cyclopropyl]carbonyl}amino)-7-methoxy-3,4-dihydro-2H-chromen-2-yl]benzoic acid) was normalized to the on-plate positive control using the following formulae:
% activity (Test compound without co-corrector)=[(test compound without co-corrector response−DMSO response)/(positive control response−DMSO response)]*100
% activity (Test compound with co-corrector)=[(test compound with co-corrector response−DMSO response)/(positive control response−DMSO response)]*100
The maximum % activity achieved for the test compound either without or with a co-corrector at any tested concentration is presented in Table 3 along with the respective EC50's calculated using the following general sigmoidal curve with variable Hill slope equation (described as Model 42 in the Accelrys® Assay Explorer v3.3 software):
General sigmoidal curve with concentration, response, top, bottom, EC50 and Hill slope. This model describes a sigmoidal curve with an adjustable baseline, a. The equation can be used to fit curves where response is either increasing or decreasing with respect to the independent variable, “x”.

[3] = with co-corrector 2 μM, read-out: EC50 (with co-corrector)
[4] = without co-corrector, read-out: EC50 (without co-corrector)

Structure (SMILES) | Emax (% Dual) [1] [% Dual] | EC50 [1] [nM] | EC50 [2, 3] [nM] | Maximum % activity (with co-corrector) ([2]; with co-corrector 2 μM) [%] | EC50 [2, 4] [nM] | Emax ([2]; without co-corrector) [%]
CCc1ccc(Oc2ccccc2)c([C@]2(C(=O)NS(=O)(=O)c3cccc4nc(C)ccc34)CCCO2)c1 [Example 22, (2S)-2-(5-ethyl-2-phenoxyphenyl)-N-(2-methylquinoline-5-sulfonyl)oxolane-2-carboxamide] | 200 | 589 | 1140 | 673 | 1950 | 235
CCc1ccc(Oc2ccccc2)c([C@@]2(C(=O)NS(=O)(=O)c3cccc4nc(C)ccc34)CCCO2)c1 [Example 23, (2R)-2-(5-ethyl-2-phenoxyphenyl)-N-(2-methylquinoline-5-sulfonyl)oxolane-2-carboxamide] | 241 | 20 | 480 | – | 1070 | 726
CCc1ccc(Oc2cccnc2OC)c([C@]2(C(=O)NS(=O)(=O)c3cccc4nc(C)ccc34)CCCO2)c1 [Example 24, (2S)-2-{5-ethyl-2-[(2-methoxypyridin-3-yl)oxy]phenyl}-N-(2-methylquinoline-5-sulfonyl)oxolane-2-carboxamide] | 167 | > 800 | 2520 | 449 | 3630 | 141
CCc1ccc(Oc2cccnc2OC)c([C@@]2(C(=O)NS(=O)(=O)c3cccc4nc(C)ccc34)CCCO2)c1 [Example 25, (2R)-2-{5-ethyl-2-[(2-methoxypyridin-3-yl)oxy]phenyl}-N-(2-methylquinoline-5-sulfonyl)oxolane-2-carboxamide] | 279 | 30.6 | 580 | 954 | 1450 | 476
CCc1ccc(Oc2cccnc2OC(F)F)c([C@]2(C(=O)NS(=O)(=O)c3cccc4nc(C)ccc34)CCCO2)c1 [Example 26, (2S)-2-(2-{[2-(difluoromethoxy)pyridin-3-yl]oxy}-5-ethylphenyl)-N-(2-methylquinoline-5-sulfonyl)oxolane-2-carboxamide] | 130 | 171 | 3270 | 828 | 3970 | 282
CCc1ccc(Oc2cccnc2OC(F)F)c([C@@]2(C(=O)NS(=O)(=O)c3cccc4nc(C)ccc34)CCCO2)c1 [Example 27, (2R)-2-(2-{[2-(difluoromethoxy)pyridin-3-yl]oxy}-5-ethylphenyl)-N-(2-methylquinoline-5-sulfonyl)oxolane-2-carboxamide] | 212 | 4.6 | 650 | – | 1470 | 709
COc1ccc(C)cc1[C@@]1(C(=O)NS(=O)(=O)c2cccc3nc(C)ccc23)C[C@H](OC)CO1 [Example 28, (2R,4S)-4-methoxy-2-(2-methoxy-5-methylphenyl)-N-(2-methylquinoline-5-sulfonyl)oxolane-2-carboxamide] | 182 | 1100 | 3470 | 513 | 4110 | 180
COc1ccc(C)cc1[C@@]1(C(=O)NS(=O)(=O)c2cccc3nc(C)ccc23)C[C@@H](OC)CO1 [Example 29, (2R,4R)-4-methoxy-2-(2-methoxy-5-methylphenyl)-N-(2-methylquinoline-5-sulfonyl)oxolane-2-carboxamide] | 230 | 164 | 1210 | 587 | 1860 | 213
COc1ccc(C)cc1[C@@]1(C(=O)NS(=O)(=O)c2cccc3nc(C)ccc23)C[C@](C)(OC)CO1 [Example 30, (2R,4S)-4-methoxy-2-(2-methoxy-5-methylphenyl)-4-methyl-N-(2-methylquinoline-5-sulfonyl)oxolane-2-carboxamide] | 197 | 331 | – | – | 2630 | 301
COc1ccc(C)cc1[C@]1(C(=O)NS(=O)(=O)c2cccc3nc(C)ccc23)C[C@@](C)(OC)CO1 [Example 31, (2S,4R)-4-methoxy-2-(2-methoxy-5-methylphenyl)-4-methyl-N-(2-methylquinoline-5-sulfonyl)oxolane-2-carboxamide] | 117 | > 5000 | – | – | 5160 | 100
